Here are results for 24 compounds from US12509444B2, “Compounds and methods for CD73 modulation and indications therefor” (Plexxikon Inc., priority 2019, dated 2025).

One experiment has as its target T1, human CD73 (Homo sapiens, UniProt P21589).
T1 construct: expressed in transfected cells
T1 sequence (P21589 27-549): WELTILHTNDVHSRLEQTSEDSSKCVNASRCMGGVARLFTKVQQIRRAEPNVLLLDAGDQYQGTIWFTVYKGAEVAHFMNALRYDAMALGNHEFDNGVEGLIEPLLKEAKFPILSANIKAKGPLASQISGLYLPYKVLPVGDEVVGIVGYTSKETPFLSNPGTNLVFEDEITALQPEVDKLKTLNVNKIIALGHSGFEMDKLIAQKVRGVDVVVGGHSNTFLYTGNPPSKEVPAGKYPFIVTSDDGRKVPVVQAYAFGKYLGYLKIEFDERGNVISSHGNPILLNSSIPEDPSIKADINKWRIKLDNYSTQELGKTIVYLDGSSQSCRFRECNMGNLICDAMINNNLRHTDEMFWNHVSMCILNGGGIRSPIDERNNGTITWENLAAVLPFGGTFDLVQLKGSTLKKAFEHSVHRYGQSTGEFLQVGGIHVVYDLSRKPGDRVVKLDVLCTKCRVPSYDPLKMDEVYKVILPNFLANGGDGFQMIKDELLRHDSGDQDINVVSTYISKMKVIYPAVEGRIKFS
The experiment in a line: Inhibitor activity against CD73 in cell based assay (CD73 expressing CHO-K1 cells). The settings on record: CHO-K1 cells expressing human CD73, 150 μM AMP, 4 hours of incubation; read-out: CHO-K1 CELL VARIANT: CD73 IC50. The gist of the method:
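Stably transfected CHO-K1 cells expressing human CD73 (1×10^4/well) incubated 4 h with compound (8-point 1:3 titration, top 10 μM final, 0.2% DMSO) and 150 μM AMP. Residual AMP in supernatant measured by CellTiter-Glo luminescence with 1 μM ATP after 30 min at room temperature; IC50 by nonlinear regression of percent inhibition vs high/low controls.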

Experiment [1] addresses T2, Human CD73 (amino acid residues 27-549) (Homo sapiens, UniProt P21589).
T2 construct: Human CD73 (amino acid residues 27-549); His tag (N); made in house; host or cells: E. coli
T2 sequence (P21589 27-549): T1 sequence (P21589 27-549)
Description: CD73 enzymatic assay (luciferase-based indirect assay, CellTiter-Glo). Format: biochemical. The settings on record: 0.4 nM CD73, 150 μM AMP, 1 hour at room temperature. The gist of the method: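 His-tagged human CD73 (27-549) from E. coli, 0.4 nM, with 150 μM AMP in 50 mM HEPES pH 7.4, 0.01% Tween 20; 1 h at room temperature. AMP remaining read by CellTiter-Glo 2.0 luminescence with 1 μM final ATP after 30 min. IC50 from nonlinear regression of % inhibition.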

Structures are written as SMILES.

For the compound `O=C(Nc1cnn2cccnc12)O[C@@H]1CCN(c2cn[nH]c(=O)c2Cl)C1` [P-0224, (R)-1-(5-chloro-6-oxo-1,6-dihydropyridazin-4-yl)pyrrolidin-3-yl pyrazolo[1,5-a]pyrimidin-3-ylcarbamate], the IC50 at human CD73 is 10 to 100 µM; in experiment [1] it was 0.001 to 10 µM.

For `O=C(Nc1ncco1)O[C@@H]1CCN(c2cn[nH]c(=O)c2Cl)C1` [P-0225, (R)-1-(5-chloro-6-oxo-1,6-dihydropyridazin-4-yl)pyrrolidin-3-yl oxazol-2-ylcarbamate], the 50% inhibitory concentration (IC50) on human CD73 lay in the range of 10 to 100 µM; in experiment [1] it was 0.001 to 10 µM.

In the case of `CCn1cc(S(=O)(=O)N[C@H]2CC[C@H](NC(=O)O[C@@H]3CCN(c4cnn(C)c(=O)c4Cl)C3)CC2)cn1` [P-0226, (R)-1-(5-chloro-1-methyl-6-oxo-1,6-dihydropyridazin-4-yl)pyrrolidin-3-yl ((1r,4R)-4-((1-ethyl-1H-pyrazole)-4-sulfonamido)cyclohexyl) carbamate], the IC50 (at human CD73; in experiment [1]) was 0.001 to 10 µM in each case.

Regarding `Cn1ncc(N2CC[C@@H](OC(=O)N[C@H]3CC[C@H](NS(=O)(=O)C4CC4)CC3)C2)c(Cl)c1=O` [P-0227, (R)-1-(5-chloro-1-methyl-6-oxo-1,6-dihydropyridazin-4-yl)pyrrolidin-3-yl ((1r,4R)-4-(cyclopropanesulfonamido)cyclohexyl)carbamate], the IC50 (on human CD73; in experiment [1]) was 0.001 to 10 µM in each case.

In the case of `Cn1ncc(N2CC[C@@H](OC(=O)N[C@H]3CC[C@H](NS(=O)(=O)C4CCCC4)CC3)C2)c(Cl)c1=O` [P-0228, (R)-1-(5-chloro-1-methyl-6-oxo-1,6-dihydropyridazin-4-yl)pyrrolidin-3-yl ((1r,4R)-4-(cyclopentanesulfonamido)cyclohexyl)carbamate], the half-maximal inhibitory concentration (IC50) (at human CD73; in experiment [1]) was 0.001 to 10 µM in each case.

On to `C[C@]1(O)CC[C@H](NC(=O)O[C@@H]2CCN(c3cn[nH]c(=O)c3Cl)C2)CC1` [P-0229, (R)-1-(5-chloro-6-oxo-1,6-dihydropyridazin-4-yl)pyrrolidin-3-yl ((1r,4R)-4-hydroxy-4-methylcyclohexyl)carbamate], for which the IC50 (on human CD73; in experiment [1]) was 0.001 to 10 µM in each case.

Consider `CO[C@H]1CC[C@H](NC(=O)O[C@@H]2CCN(c3cn[nH]c(=O)c3Cl)C2)CC1` [P-0230, (R)-1-(5-chloro-6-oxo-1,6-dihydropyridazin-4-yl)pyrrolidin-3-yl ((1r,4R)-4-methoxycyclohexyl)carbamate], for which the IC50 (at human CD73; in experiment [1]) was 0.001 to 10 µM each time.

`CO[C@H]1CC[C@@H](NC(=O)O[C@@H]2CCN(c3cn[nH]c(=O)c3Cl)C2)CC1` [P-0231, (R)-1-(5-chloro-6-oxo-1,6-dihydropyridazin-4-yl)pyrrolidin-3-yl ((1s,4S)-4-methoxycyclohexyl)carbamate]: the IC50 (at human CD73; in experiment [1]) was 0.001 to 10 µM throughout.

For `O=C(NCC1CCS(=O)(=O)CC1)O[C@@H]1CCN(c2cn[nH]c(=O)c2Cl)C1` [P-0232, (R)-1-(5-chloro-6-oxo-1,6-dihydropyridazin-4-yl)pyrrolidin-3-yl ((1,1-dioxidotetrahydro-2H-thiopyran-4-yl)methyl)carbamate], the IC50 (on human CD73; in experiment [1]) was 0.001 to 10 µM each time.

Consider `O=C(NCC1CCCCC1)O[C@@H]1CCN(c2cn[nH]c(=O)c2Cl)C1` [P-0233, (R)-1-(5-chloro-6-oxo-1,6-dihydropyridazin-4-yl)pyrrolidin-3-yl (cyclohexylmethyl)carbamate], for which the 50% inhibitory concentration (IC50) (on human CD73; in experiment [1]) was 0.001 to 10 µM each time.

As for `O=C(NCCC1CCCC1)O[C@@H]1CCN(c2cn[nH]c(=O)c2Cl)C1` [P-0234, (R)-1-(5-chloro-6-oxo-1,6-dihydropyridazin-4-yl)pyrrolidin-3-yl (2-cyclopentylethyl)carbamate], the concentration for half-maximal inhibition (IC50) (at human CD73; in experiment [1]) was 0.001 to 10 µM each time.

With `O=C(NCCCO)O[C@@H]1CCN(c2cn[nH]c(=O)c2Cl)C1` [P-0235, (R)-1-(5-chloro-6-oxo-1,6-dihydropyridazin-4-yl)pyrrolidin-3-yl (3-hydroxypropyl)carbamate], the IC50 (at human CD73; in experiment [1]) was 0.001 to 10 µM each time.

As for `O=C(NCC1CCOCC1)O[C@@H]1CCN(c2cn[nH]c(=O)c2Cl)C1` [P-0236, (R)-1-(5-chloro-6-oxo-1,6-dihydropyridazin-4-yl)pyrrolidin-3-yl ((tetrahydro-2H-pyran-4-yl)methyl)carbamate], the half-maximal inhibitory concentration (IC50) (on human CD73; in experiment [1]) was 0.001 to 10 µM throughout.

Take `O=C(N[C@@H]1CC[C@H](NS(=O)(=O)c2ccccc2F)C1)O[C@@H]1CCN(c2cn[nH]c(=O)c2Cl)C1` [P-0237, (R)-1-(5-chloro-6-oxo-1,6-dihydropyridazin-4-yl)pyrrolidin-3-yl ((1R,3S)-3-((2-fluorophenyl)sulfonamido)cyclopentyl)carbamate]: the IC50 (at human CD73; in experiment [1]) was 0.001 to 10 µM throughout.

On to `Cn1ncc(N2CC[C@@H](OC(=O)N[C@H]3CC[C@H](NS(=O)(=O)c4c(F)cccc4F)CC3)C2)c(Cl)c1=O` [P-0238, (R)-1-(5-chloro-1-methyl-6-oxo-1,6-dihydropyridazin-4-yl)pyrrolidin-3-yl ((1r,4R)-4-((2,6-difluorophenyl)sulfonamido)cyclohexyl)carbamate], for which the half-inhibitory concentration (IC50) (on human CD73; in experiment [1]) was 0.001 to 10 µM throughout.

For the compound `Cn1ncc(N2CC[C@@H](OC(=O)N[C@H]3CC[C@H](NS(=O)(=O)c4ccccc4Br)CC3)C2)c(Cl)c1=O` [P-0239, (R)-1-(5-chloro-1-methyl-6-oxo-1,6-dihydropyridazin-4-yl)pyrrolidin-3-yl ((1r,4R)-4-((2-bromophenyl)sulfonamido)cyclohexyl)carbamate], the half-inhibitory concentration (IC50) (on human CD73; in experiment [1]) was 0.001 to 10 µM each time.

For the compound `O=C(NCC1CCNCC1)O[C@@H]1CCN(c2cn[nH]c(=O)c2Cl)C1` [P-0240, (R)-1-(5-chloro-6-oxo-1,6-dihydropyridazin-4-yl)pyrrolidin-3-yl (piperidin-4-ylmethyl)carbamate], the IC50 (at human CD73; in experiment [1]) was 0.001 to 10 µM in each case.

With `CC(=O)N1CCC(CNC(=O)O[C@@H]2CCN(c3cn[nH]c(=O)c3Cl)C2)CC1` [P-0241, (R)-1-(5-chloro-6-oxo-1,6-dihydropyridazin-4-yl)pyrrolidin-3-yl ((1-acetylpiperidin-4-yl)methyl)carbamate], the concentration for half-maximal inhibition (IC50) (on human CD73; in experiment [1]) was 0.001 to 10 µM in each case.

For the compound `O=CN1CCC(CNC(=O)O[C@@H]2CCN(c3cn[nH]c(=O)c3Cl)C2)CC1` [P-0242, (R)-1-(5-chloro-6-oxo-1,6-dihydropyridazin-4-yl)pyrrolidin-3-yl ((1-formylpiperidin-4-yl)methyl)carbamate], the IC50 (at human CD73; in experiment [1]) was 0.001 to 10 µM each time.

For the compound `O=C(N[C@@H]1CC[C@H](NC(=O)c2ccccc2)C1)O[C@@H]1CCN(c2cn[nH]c(=O)c2Cl)C1` [P-0243, (R)-1-(5-chloro-6-oxo-1,6-dihydropyridazin-4-yl)pyrrolidin-3-yl ((1R,3S)-3-benzamidocyclopentyl) carbamate], the half-maximal inhibitory concentration (IC50) (at human CD73; in experiment [1]) was 0.001 to 10 µM throughout.

In the case of `COC(=O)Cn1ncc(N2CC[C@@H](OC(=O)NC3CCC(F)(F)CC3)C2)c(Cl)c1=O` [P-0244, methyl (R)-2-(5-chloro-4-(3-(((4,4-difluorocyclohexyl)carbamoyl)oxy)pyrrolidin-1-yl)-6-oxopyridazin-1(6H)-yl)acetate], the IC50 at human CD73 lay in the range of 10 to 100 µM; in experiment [1] it was 0.001 to 10 µM.

`COCCn1ncc(N2CC[C@@H](OC(=O)NC3CCC(F)(F)CC3)C2)c(Cl)c1=O` [P-0245, (R)-1-(5-chloro-1-(2-methoxyethyl)-6-oxo-1,6-dihydropyridazin-4-yl)pyrrolidin-3-yl (4,4-difluorocyclohexyl)carbamate]: the concentration for half-maximal inhibition (IC50) was in the range of 10 to 100 µM at human CD73 and 0.001 to 10 µM in experiment [1].

As for `O=C(NC1CCC(F)(F)CC1)O[C@@H]1CCN(c2cnn(CC(O)CO)c(=O)c2Cl)C1` (stereo partly drawn) [P-0246, (3R)-1-(5-chloro-1-(2,3-dihydroxypropyl)-6-oxo-1,6-dihydropyridazin-4-yl)pyrrolidin-3-yl (4,4-difluorocyclohexyl)carbamate], the concentration for half-maximal inhibition (IC50) (on human CD73; in experiment [1]) was 0.001 to 10 µM throughout.

`CCS(=O)(=O)N[C@H]1CC[C@H](NC(=O)O[C@@H]2CCN(c3cn[nH]c(=O)c3Cl)C2)CC1` [P-0247, (R)-1-(5-chloro-6-oxo-1,6-dihydropyridazin-4-yl)pyrrolidin-3-yl ((1r,4R)-4-(ethylsulfonamido)cyclohexyl) carbamate]: the concentration for half-maximal inhibition (IC50) (at human CD73; in experiment [1]) was 0.001 to 10 µM throughout.
